This note sets out measurements from publication PMC4931907 (eLife, 2016).

Assay [1] has as its target T1, p300 (Homo sapiens, UniProt Q09472).
T1 construct: in vitro acetylation assays with purified histones and a recombinant p300 catalytic domain; purchased Enzo Life Sciences
T1 sequence (Q09472 1287-1663 limits assumed): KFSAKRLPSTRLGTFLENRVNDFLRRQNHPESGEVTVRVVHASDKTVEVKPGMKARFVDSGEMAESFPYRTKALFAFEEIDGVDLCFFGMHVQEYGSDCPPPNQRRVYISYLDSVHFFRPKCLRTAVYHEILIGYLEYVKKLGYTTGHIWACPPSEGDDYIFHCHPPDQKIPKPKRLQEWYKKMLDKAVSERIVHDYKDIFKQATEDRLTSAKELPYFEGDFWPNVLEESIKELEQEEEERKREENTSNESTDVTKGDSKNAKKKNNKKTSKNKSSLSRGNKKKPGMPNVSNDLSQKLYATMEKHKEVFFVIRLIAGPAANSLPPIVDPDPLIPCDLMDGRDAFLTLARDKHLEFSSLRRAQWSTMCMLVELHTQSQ
The assay can be described thus: p300 inhibition by direct microfluidic mobility shift analysis, H4(3–14) peptide. Format: biochemical. The following applies: microfluidic mobility shift, H4(3–14) peptide, 5 μM acetyl-CoA. How it is done:
Figure 1. Salicylate inhibits CBP/p300 in vitro. (A) Recombinant p300, CBP, GCN5, or PCAF and histones were incubated with ^14C-labeled acetyl-CoA with or without sodium salicylate, separated by SDS-PAGE, analyzed by autoradiography, and quantified with Image J software. Acetylation levels are relative to those in untreated controls. (B) Thermal stability assay for sodium salicylate binding to the p300 HAT domain. Tm, melting temperature. (C) and (D) Lineweaver-Burk plots showing kinetic analysis of p300 acetyltransferase inhibition by sodium salicylate. Histone acetylation was measured with several concentrations of acetyl-CoA (C) or histone (D) in the presence or absence of sodium salicylate. DOI: http://dx.doi.org/10.7554/eLife.11156.003 Figure 1—figure supplement 1. […] (A) Dose-response data for inhibition of p300 by salicylate and salicyl-CoA. Acetylation of an H4(3–14) peptide was monitored using direct microfluidic mobility shift analysis as previously described ([Montgomery et al., 2014]; [Fanslau et al., 2010]). Error is given as the 95% confidence interval. […] Error is given as the 95% confidence interval. DOI: http://dx.doi.org/10.7554/eLife.11156.004 [drawing 1] TEXT PRINTED IN THE PICTURE: (A) Salicylate: p300 IC50 (mM): 6.12; Confidence Interval [CI95] (mM): 5.2–7.2 | (A) Salicyl-CoA: p300 IC50 (mM): […]; Confidence Interval [CI95] […] (mM): 0.78–1.4 | (B) Diflunisal-CoA: p300 IC50 (mM): 0.02; Confidence Interval [CI95] (mM): 0.02–0.03
Salicyl-CoA and diflunisal-CoA were synthesized from their parent carboxylic acids and HPLC purified according to previously reported methods ([Padmakumar et al., 1997]). The purity of each acyl-CoA was confirmed by analytical HPLC prior immediately prior to utilization ([Montgomery et al., 2014]; [Fanslau et al., 2010]). P300 inhibition assays were performed using direct microfluidic mobility shift analysis as previously described. Briefly, p300 reaction mixture (50 mM HEPES, pH 7.5, 50 mM NaCl, 2 mM EDTA, 2 mM DTT, 0.05% Triton-X-100, 50 nM p300, 2 μM FITC-histone H4 peptide) was plated in 384-well plates and allowed to equilibrate at room temperature for 10 min. Reactions were initiated by addition of acetyl-CoA (final concentration = 5 μM), bringing the final assay volume to 30 μL. Assays were quenched after 10 min (<15% product accumulation) by addition of 5 μL of 0.5 M neutral hydroxylamine and transferred to a Perkin-Elmer Lab-Chip EZ-Reader instrument for analysis. Separation conditions were: downstream voltage of −500 V, upstream voltage of −2500 V, and a pressure of −1.5 psi. Percent conversion was calculated by ratiometric measurement of substrate/product peak heights. Percent activity represents the percent conversion of KAT reactions treated with inhibitors relative to untreated control KAT reactions, and corrected for nonenzymatic acetylation. Dose-response analysis of p300 inhibition was performed in triplicate and analyzed by nonlinear least-squares regression fit to Y = 100/(1 + 10∧(Log IC50 – X)*H), where H = Hill slope (variable). IC50 values represent the concentration that inhibits 50% of KAT activity. Calculations were performed using Prism 6 (GraphPad) software.

Assay [2] concerns acetyl NF-κBK310. The assay can be described thus: Acetylation of overexpressed NF-κB p65 in HEK293T cells, Western blot. It is filed as cell-based. The note with it: HEK293T transfected with p300 and NF-κB p65, 24 hr.
Text: Figure 2.
On the technique in general: In western blotting, separated proteins are transferred to a membrane and probed.

Assay [3] addresses T2, PCAF (Homo sapiens, UniProt Q92831).
T2 construct: purchased Enzo Life Sciences
The assay can be described thus: In vitro HAT assay with recombinant PCAF, histones and 14C acetyl-CoA. It is filed as biochemical. As for the experimental part: To determine whether salicylate inhibits p300 and other acetyltransferases, we used in vitro acetylation assays with purified histones and a recombinant p300 catalytic domain.
Figure 1. Salicylate inhibits CBP/p300 in vitro. (A) Recombinant p300, CBP, GCN5, or PCAF and histones were incubated with ^14C-labeled acetyl-CoA with or without sodium salicylate, separated by SDS-PAGE, analyzed by autoradiography, and quantified with Image J software. Acetylation levels are relative to those in untreated controls. (B) Thermal stability assay for sodium salicylate binding to the p300 HAT domain. Tm, melting temperature. […] Histone acetylation was measured with several concentrations of acetyl-CoA (C) or histone (D) in the presence or absence of sodium salicylate. […] Acetylation of an H4(3–14) peptide was monitored using direct microfluidic mobility shift analysis as previously described ([Montgomery et al., 2014]; [Fanslau et al., 2010]). […]
Recombinant HAT ([…]), either p300, CBP, PCAF, or GCN5 (Enzo Life Sciences), and 10 µg of histones (Sigma) were incubated with sodium salicylate (Sigma) in reaction buffer (50 mM HEPES, pH 8.0, 10% glycerol, 1 mM) at 30°C for 30 min and then with 0.1 mCi of ^14C acetyl-CoA at 30°C for 60 min. Reactions were stopped by adding 6x sample buffer and analyzed by SDS-PAGE. […]

T2 sequence (Q92831 whole entry, species assumed): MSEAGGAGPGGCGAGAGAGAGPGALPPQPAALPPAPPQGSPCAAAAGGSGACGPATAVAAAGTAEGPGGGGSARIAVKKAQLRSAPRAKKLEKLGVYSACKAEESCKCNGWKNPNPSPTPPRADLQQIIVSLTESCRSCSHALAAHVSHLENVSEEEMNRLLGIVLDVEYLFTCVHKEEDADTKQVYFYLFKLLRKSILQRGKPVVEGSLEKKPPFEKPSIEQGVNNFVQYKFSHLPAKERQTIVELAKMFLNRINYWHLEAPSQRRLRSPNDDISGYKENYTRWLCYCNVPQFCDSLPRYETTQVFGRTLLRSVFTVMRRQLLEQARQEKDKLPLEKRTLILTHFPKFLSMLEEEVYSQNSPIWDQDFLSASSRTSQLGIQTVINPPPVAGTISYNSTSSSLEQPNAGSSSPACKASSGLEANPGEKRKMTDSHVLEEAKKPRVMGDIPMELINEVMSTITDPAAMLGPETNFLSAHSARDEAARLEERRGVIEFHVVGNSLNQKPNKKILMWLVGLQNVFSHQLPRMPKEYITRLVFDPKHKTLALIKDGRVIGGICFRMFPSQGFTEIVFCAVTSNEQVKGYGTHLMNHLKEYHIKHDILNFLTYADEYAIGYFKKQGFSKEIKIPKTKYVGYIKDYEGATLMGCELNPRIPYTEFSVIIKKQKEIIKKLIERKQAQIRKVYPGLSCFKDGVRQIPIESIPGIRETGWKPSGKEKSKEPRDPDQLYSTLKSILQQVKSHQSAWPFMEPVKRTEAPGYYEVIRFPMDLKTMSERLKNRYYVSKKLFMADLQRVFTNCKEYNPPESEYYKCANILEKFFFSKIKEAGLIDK

For the compound `O=C(O)c1cc(-c2ccc(F)cc2F)ccc1O` [diflunisal], in assay [1], the IC50 (usually the concentration that inhibits the measured activity by half) is 1.05 mM.

Consider `O=C(O)c1ccccc1O` [salicylate, salicylic acid], for which the “Acetylation of NF-κB p65 K310” value in assay [2] was “decreased acetylation”. Further, the “Inhibition of PCAF acetyltransferase” value in assay [3] is “did not detectably inhibit”. Moreover, the IC50 in assay [1] came to 6.12 mM.
